Measured values from patent publication US7416744B2, “Extracts, compounds and pharmaceutical compositions having anti-diabetic activity and their use” (priority 2000, dated 2008).

Legend:
male ZDF rats [1] = assay: Chronic study: blood glucose concentration in fed rats; type: in vivo, rat
Protocol: (§1) After a wash-out of 9 days after the acute dose, the rats were retained in the same treatment groups for the chronic study. […] For the pair-feeding, rats were individually matched. Pair-fed rats together with controls were dosed with water daily. Rats were dosed daily at ca 9.30 AM. The initial doses were 120 mg/kg (high dose) and 60 mg/kg (low dose).
(§2) Chronic Study—The compound (1) was made up in water. Animals were dosed at the appropriate rate daily by oral gavage. Control animals received water alone at the rate of 1 ml/kg. Doses were administered at ca 10 AM each day for a total of 30 days.
(§3) On Day 7 of the dosing procedure the dose levels of groups B & D were reduced to 60 mg/kg and 30 mg/kg due to concerns over that food intake suppression might be too great. The dosing procedure remained the same and animals were dosed for a further 23 days (30 days dosing in total).
(§4) For measurement of blood glucose levels, a 20 μl sample of blood was taken from the tail vein whilst animals were in a fed state. A further 100 μl sample of blood was taken and the plasma separated by centrifugation (5000 rpm, 5 minutes). Plasma samples were then analysed for insulin and leptin using rat insulin or leptin ELISA kits (Crystal Chem Inc, PO Box 60225, Chicago, Ill. 60660, USA). Blood glucose, insulin and leptin levels were determined at approximately weekly intervals.

normal rats = settings: administered orally; previously shown; cited from earlier work
male ZDF rats [2] = assay: Chronic study: blood glucose concentration in fasted rats; type: in vivo, rat; settings: 5 h fast
Protocol: as §1, §2, §3, §4
Fasted glucose, insulin and leptin levels were determined in an identical manner but animals were fasted for 5 hours prior to samples being taken.

male ZDF rats [3] = assay: Acute study: single oral dose, dose-response, food intake; type: in vivo, rat
Text: (§5) The animals used for this study were 30 male ZDF rats and 6 male lean ZDF rats obtained from Gmi (Indianapolis, Ind., USA). The rats arrived at 6 weeks of age. The acute study was undertaken when the rats were 7 weeks old and the chronic study started when the rats were 9 weeks old.
This was a single dose, dose-response study in ZDF rats. The 30 ZDF rats were allocated to one of 5 groups so that there were 6 rats in each group. In addition there were 6 untreated lean ZDF rats. All of the rats were housed individually. The acute dose of the compound as given by oral gavage at 9.30 AM. Control ZDF and lean rats received water. Food intake was measured over the periods 9.30-16.00 (daytime) and 16.00-9.30 (night-time) for 48 hours.
Six days prior to the single dose administration the rats were allocated to individual cages and were provided with food and water ad libitum. Four days prior to dose administration, 50 g of food was placed in each cage. Then two days prior to dose administration at ca 9.30 and 16.00 hours the food remaining was weighed and replaced with a further 50 g.
Acute Study—The compound (1) was made up in water. Animals were administered with a single oral dose of The compound (1) at the appropriate rate. Control animals received water alone at the rate of 1 ml/kg. The compound (1) was administered at ca 9.30 AM.
(§6) Daily food and water intake of each rat was measured by weight. Any spilled food was also collected and weighed so that an accurate estimate of food consumption could be made.

male ZDF rats [4] = assay: Chronic study: oral glucose tolerance test (OGTT); type: in vivo, rat; settings: day 9, oral 2 g/kg glucose load
Protocol: Oral glucose tolerance was measured at 9 days following treatment (chronic study). Animals were fasted for 5 hours prior to the start of the OGTT. Animals were treated with glucose diluted in water at a rate of 2 g/kg ([…]). Blood samples were taken at 0, 30, 60 90 and 120 minutes. Glucose concentrations were determined by mixing blood samples with 0.38 ml of haemolysis reagent. A duplicate 20 μl aliquots of this mixture was taken for each individual sample and placed in an assay tray. To each well was added 180 μl aliquots of Trinders glucose reagent. The samples were mixed and then left for approximately 30 minutes. Samples were then analysed automatically using a SpectraMax 250 and SoftMax Pro software (Molecular devices Corporation, 1311 Orleans Drive, Sunnyvale, Calif. 94089, USA). The results were converted into glucose concentration values using Prism software, version 3.0 (GraphPad Software Inc, San Diego, Calif. USA)
The OGTT was repeated after 30 days treatment. The procedure was identical except that the pair-fed rats were each given 6 g of food at 7 AM with food being withdrawn at 9 AM for 5 hours.
Blood samples for insulin were obtained at 30 minutes prior to and 60 minutes post glucose load.
Oral glucose tolerance was determined after 8 days and after 29 days of treatment, i.e. on day 9 and day 30. Rats were fasted for 5 hours prior to receiving an oral 2 g/kg glucose load.

male ZDF rats [5] = assay: Chronic study: water intake; type: in vivo, rat
Protocol: as §1
(§7) Food and water intake were measured daily. Bodyweights were measured twice weekly. Blood samples were taken for determination of glucose, insulin and leptin. Oral glucose tolerance was also measured.
as §2, §3, §6
(§8) In order to determine the potential long-term effects of The compound (1), the measurement of food and water intake were continued following withdrawal of treatment.

male ZDF rats [6] = assay: Chronic study: bodyweight; type: in vivo, rat
Protocol: as §1, §7, §2, §3
The bodyweight of each rat was measured twice weekly throughout the course of the study.

male ZDF rats [7] = assay: Chronic study: daily oral dosing, food intake (incl. regression after withdrawal); type: in vivo, rat
Text: as §5, §1, §7, §2, §3, §6, §8

[8] = 120 mg/kg and 60 mg/kg daily oral

C/C=C(\C)C(=O)O[C@@H]1CC2C(CC=C3C[C@@H](OC4CC(OC)C(OC5CC(OC)C(OC6OC(C)C(O)C(OC)C6O)C(C)O5)C(C)O4)CC[C@@]32C)[C@@]2(O)CC[C@H](C(C)=O)[C@@]12C (stereo partly drawn) [compound (1), 3-0-[-β-D-thevetopyranosyl-(1-4)-β-D-cymaropyranosyl-(1-4)-β-D-cymaropyranosyl]-12β-0-tigloyloxy-14-hydroxy-14β-pregn-50-en-20-one]
treatment of established diabetes, overall conclusion (male ZDF rats [1]; ZDF male rats): effective treatment | blood glucose concentration in fed rats (male ZDF rats [1]; after 7 days of treatment): reduction in the blood glucose concentration from the diabetic level to a similar concentration as in lean littermates | blood glucose concentration in fed rats after withdrawal of therapy (male ZDF rats [1]; after withdrawal): steadily increased | glycaemic status (plasma glucose, glucose tolerance, water intake) (male ZDF rats [1]; chronic study, overall): substantial improvements in glycaemic status | glycaemia in fed rats during therapy (male ZDF rats [1]; until withdrawal of therapy): Normal glycaemia was maintained | food intake in normal rats (normal rats): reduce food intake | fasted blood glucose concentration versus ZDF controls (male ZDF rats [2]; after 8 days treatment): significantly lower | fasted blood glucose concentration versus lean rats (male ZDF rats [2]; after 8 days treatment): did not differ significantly | fasted blood glucose concentration versus ZDF controls (male ZDF rats [2]; after 29 days treatment): significantly lower | fasted blood glucose concentration versus lean rats (male ZDF rats [2]; after 29 days treatment): did not differ significantly | food intake for the period 24-48 hours past a single oral dose (male ZDF rats [3]; 20-160 mg/kg, daytime and night-time): reduced (both daytime and night-time) in a dose-related manner | food intake in the second day (significance) (male ZDF rats [3]; single oral dose 80 mg/kg): significant | food intake in the second day (significance) (male ZDF rats [3]; single oral dose 160 mg/kg): significant | night-time food intake compared with lean rats (male ZDF rats [3]; single oral dose 160 mg/kg): the same as the lean rats | food intake in the first 24 hours (significance) (male ZDF rats [3]; single oral dose 160 mg/kg (only dose significant)): Significant reduction | onset of effect on food intake (male ZDF rats [3]; single oral dose given at 09.30): slow in onset | daytime food intake over the 7 hour period post-dosing (male ZDF rats [3]; single oral dose, dose range 20-160 mg/kg): no significant effect | night-time food intake (male ZDF rats [3]; single oral dose, dose range 20-160 mg/kg, first night): dose-related reduction | duration of response to a single dose (male ZDF rats [3]; single oral dose, effects seen during second day): long | oral glucose tolerance (male ZDF rats [4]): only marginally impaired relative to lean | water intake after withdrawal of the treatment (male ZDF rats [5]; after 30 days treatment, previously treated rats): rose slightly | time after withdrawal before blood glucose concentration and water intake approached that of the diabetic controls (male ZDF rats [5]; after end of chronic dosing): approximately 2 weeks | diabetic state by water intake after 66 days (male ZDF rats [5]; after withdrawal, versus untreated controls): not as diabetic as the untreated controls | time for water intake to be reduced to the level in the lean controls (male ZDF rats [5]; high dose (120 or 60 mg/kg/day) or low dose (60 or 30 mg/kg/day), maintained throughout dosing): ≤ 4 days | growth rate after 14 days (male ZDF rats [6]; chronic dosing): higher growth rate than the control ZDF rats | growth rate over the first 3 weeks of treatment relative to ZDF controls (male ZDF rats [6]; chronic dosing, both doses): dose-related decrease in the growth rate | bodyweight plateau level (male ZDF rats [6]; chronic study, ZDF controls plateaued at 360-370 g): more than 400 g | bodyweight by the end of the treatment period versus ZDF controls (male ZDF rats [6]; high dose (120 then 60 mg/kg)): the same weight | bodyweight by the end of the treatment period versus ZDF controls (male ZDF rats [6]; low dose (60 then 30 mg/kg)): heavier than the controls | body weight about 2 weeks after withdrawal versus ZDF controls (male ZDF rats [6]; previously treated rats): significantly greater | daytime food intake over the first 7 days (male ZDF rats [7]; [8]): increasing effect | time until full effect on night-time food intake apparent (male ZDF rats [7]; [8]): 2 days | appetite suppression, overall conclusion (male ZDF rats [7]; ZDF male rats): powerful appetite suppressant | effectiveness on food intake reduction over the period 7-14 days (male ZDF rats [7]; after dose reduction to 60 and 30 mg/kg): small reduction in the effectiveness | rebound hyperphagia on withdrawal of the drug (male ZDF rats [7]; after end of chronic dosing): did not lead to a rebound hyperphagia | reduction in food intake after 7 days (male ZDF rats [7]; both dose levels (120 and 60 mg/kg daily oral)): around 50% | food intake after 14 days (male ZDF rats [7]; both groups, 60 and 30 mg/kg): stabilised | pharmacological tolerance to food intake reduction (male ZDF rats [7]; chronic dosing): no indication of tolerance | food intake over the treatment period (male ZDF rats [7]; chronic dosing, overall): marked reduction | food intake after withdrawal of drug treatment, relative to control ZDF rats (male ZDF rats [7]; monitored for a further 17 days after withdrawal): only a small loss of efficacy
